These results are taken from paper PMC9029089, “1,5-Disubstituted Acylated 2-Amino-4,5-dihydroimidazoles as a New Class of Retinoic Acid Receptor–Related Orphan Receptor (ROR) Inhibitors” (International Journal of Molecular Sciences, 2022).

As a reminder, the IC50 is the concentration that inhibits the measured activity by half. The term % Inhibition denotes the change of the read-out against control, counted positive when it falls. A higher % Inhibition goes with a response far below the control. The term inhibition denotes the share of the control response that was lost under treatment.

Where two headings read alike, the source gives them in different places.

For data set [1], the system named is experimental autoimmune encephalomyelitis mouse model. Set-up: method as in PMID 21441909, PMID 21499262, PMID 21566134. The note with it: EAE mouse model; cited from earlier work.
The test system of a further data set is Th17 cells. On the set-up: method as in PMID 21441909, PMID 21499262, PMID 21566134. The note with it: RORγ inverse agonists; cited from earlier work.
In data set [2] the target is T1, RORγ (Mus musculus, UniProt P51450).
T1 construct: mRORγ (Pro-261-end); expressed in transfected cells
T1 sequence (P51450 261-516 limits assumed): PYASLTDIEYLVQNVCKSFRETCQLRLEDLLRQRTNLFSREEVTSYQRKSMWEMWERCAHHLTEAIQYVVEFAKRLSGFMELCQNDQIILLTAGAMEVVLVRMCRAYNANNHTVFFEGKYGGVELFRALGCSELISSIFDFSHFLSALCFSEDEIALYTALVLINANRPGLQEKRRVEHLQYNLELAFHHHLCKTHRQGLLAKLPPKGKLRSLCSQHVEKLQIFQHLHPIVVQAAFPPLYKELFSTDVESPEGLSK
Nature of the data set: Gal4-RORγ-LBD UAS-luciferase reporter assay in TRex-CHO-K1 cells (doxycycline-stimulated). The format is cell-based. For orientation: Reporter assays use an easily measured gene product as a stand-in for the process of interest.

The test system of data set [3] is TRex-CHO-luciferase-RORγ cells. The experiment in a line: resazurin cell viability assay. The format is cell-based. The note with it: 5 µg/mL. On the procedure: (§1) For screening FIU libraries, cells were resuspended in Ham’s F-12 assay medium containing 2% charcoal-treated FBS and no selection drugs. Ten thousand cells per well were seeded in 30 µL of assay medium in 384 white plates with clear bottom (Greiner). Cells were allowed to attach for 2 h, followed by compound treatment and stimulation with 20 ng/mL doxycycline for an additional 16–20 h. Appropriate solvent controls, negative controls with no doxycycline, and blanks with no cells were included in every plate. Prior to measuring luciferase activity, 6 µL of 0.15 mg/mL resazurin (Cayman Chemical) in PBS were added and cells were incubated for 1 h at 37 °C. Fluorescence intensity was detected at 545 nm excitation/590 nm emission using a CLARIOstar reader (BMGLabtech) as a measure of cell viability, to identify any potential cytotoxic effect of test compounds and mixtures. Following the resazurin assay, the medium was removed and 20 µL of BriteLite-Plus luciferase reagent (Perking Elmer) were added; luminescence was measured in a CLARIOstar reader using a 384 aperture spoon and a 0.1 sec measuring time interval.
(In general: Alamar Blue is a resazurin reagent that responds to reducing activity.)

The next data set has as its target T2, RORα (Homo sapiens, UniProt P35398).
T2 construct: hRORα (Pro-211-end); expressed in transfected cells
T2 sequence (P35398 266-523): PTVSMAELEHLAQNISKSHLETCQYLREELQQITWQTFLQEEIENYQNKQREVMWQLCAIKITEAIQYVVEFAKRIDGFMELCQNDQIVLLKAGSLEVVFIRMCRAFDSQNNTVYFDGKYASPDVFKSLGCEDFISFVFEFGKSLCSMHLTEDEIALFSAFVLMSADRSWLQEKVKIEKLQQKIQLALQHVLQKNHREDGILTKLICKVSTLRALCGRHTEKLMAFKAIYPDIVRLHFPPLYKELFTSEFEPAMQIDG
The experiment in a line: Gal4-RORα-LBD UAS-luciferase reporter assay in TRex-CHO-K1 cells (doxycycline-stimulated). It is filed as cell-based.
Description: The Gal4-DBD-ROR-LBD fusion proteins were subcloned in the pcDNA4/TO expression vector (Thermo Scientific) and transfected into TRex-CHO-K1 cells (Thermo Scientific) for tetracycline-controlled expression of the corresponding ROR proteins. Transfected cells were selected with hygromycin and Zeocin and individual clones for each of the Gal4-RORγ, Gal4-RORα, and Gal4-RORβ cell lines were isolated using a standard serial dilution protocol. Clones with the highest doxycycline-dependent stimulation of luciferase activity were selected for all functional experiments.
as §1, with “Ten thousand cells per well were seeded in 30 µL of assay medium in 384 white plates with clear bottom (Greiner).” left out, “mixtures.” for “mixtures. Following the resazurin assay, the medium was removed and 20 µL of BriteLite-Plus luciferase reagent (Perking Elmer) were added; luminescence was measured in a CLARIOstar reader using a 384 aperture spoon and a 0.1 sec measuring time interval.”
(§2) Luminescence was normalized by the fluorescence intensity and the percentage of inhibition was calculated with respect to control cells stimulated with doxycycline in the presence of solvent control (0.1% DMF). All primary screens with individual compounds were performed in triplicate with a final concentration of 5 µg/mL. […] IC50 values were calculated using GraphPrism (GraphPad software).

The target of a further data set is T3, RORβ (Rattus norvegicus, UniProt P45446).
T3 construct: rRORβ (Pro 205-end); expressed in transfected cells
T3 sequence (P45446 205-459 isoform P45446-1): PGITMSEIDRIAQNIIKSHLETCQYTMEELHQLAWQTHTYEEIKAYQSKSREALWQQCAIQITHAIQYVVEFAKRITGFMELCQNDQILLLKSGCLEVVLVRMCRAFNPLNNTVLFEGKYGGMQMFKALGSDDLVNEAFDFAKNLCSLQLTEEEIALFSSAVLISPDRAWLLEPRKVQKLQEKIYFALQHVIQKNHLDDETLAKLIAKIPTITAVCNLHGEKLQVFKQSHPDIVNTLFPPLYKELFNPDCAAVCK
The experiment in a line: Gal4-RORβ-LBD UAS-luciferase reporter assay in TRex-CHO-K1 cells (doxycycline-stimulated). The format is cell-based.
Description: To investigate the transcriptional activity of all three RORs, we generated stable cell lines expressing an UAS-driven luciferase reporter together with the corresponding Gal4-DNA binding domain fused to the ligand binding domains (LBDs) of mRORγ (Pro-261-end), hRORα (Pro-211-end), or rRORβ (Pro 205-end). The Gal4-DBD-ROR-LBD fusion proteins were subcloned in the pcDNA4/TO expression vector (Thermo Scientific) and transfected into TRex-CHO-K1 cells (Thermo Scientific) for tetracycline-controlled expression of the corresponding ROR proteins. Transfected cells were selected with hygromycin and Zeocin and individual clones for each of the Gal4-RORγ, Gal4-RORα, and Gal4-RORβ cell lines were isolated using a standard serial dilution protocol. Clones with the highest doxycycline-dependent stimulation of luciferase activity were selected for all functional experiments. All cell lines were maintained in complete Ham’s F12 medium containing 10% fetal bovine serum (FBS), 10 µg/mL blasticidine, 100 µg/mL hygromycin, and 100 µg/mL Zeocin and were used within 2 months of culture without any loss of doxycycline-dependent stimulation of luciferase activity.
as §1, §2

The target in data set [4] is T1, RORγ. The experiment in a line: Gal4-RORγ-LBD UAS-luciferase reporter assay in TRex-CHO-K1 cells (doxycycline-stimulated). It is filed as cell-based. The note with it: for % Inhibition at 4 μM (N=3): library 2520, RORγ cells.
[5] abbreviates: read-out: IC50 (μM, N=4) ROR-Gamma, library 2520.
Setting [6] is: read-out: IC50 (μM, N=4) ROR-Alpha, library 2520.
Where [7] appears, read: read-out: IC50 (μM, N=4) ROR-Beta, library 2520.

In the case of `C[C@H]1O[C@@H](O[C@H]2[C@@H](O)C[C@H](O[C@H]3[C@@H](O)C[C@H](O[C@H]4CC[C@@]5(C)[C@H](CC[C@@H]6[C@@H]5C[C@@H](O)[C@]5(C)[C@@H](C7=CC(=O)OC7)CC[C@]65O)C4)O[C@@H]3C)O[C@@H]2C)C[C@H](O)[C@@H]1O` [digoxin], in data set [1], the “suppression of the onset of disease” value is “suppress Th17 differentiation and the onset of disease”. Besides, the “suppression of Th17 differentiation” value with Th17 cells is “suppress Th17 differentiation”.
For the compound `O=C(Cc1ccccc1)NC1=NC[C@H](Cc2ccccc2)N1CCC12CC3CC(CC(C3)C1)C2` [1295.271], on RORγ [2] (individual controls 1295.201-307, 5 μg/ml, triplicate), the “% Inhibition RORγ 5 μg/ml” value amounted to 36.0%. Further, the “toxicity as determined by a resazurin assay” value in data set [3] was “significant toxicity”.
With `C[C@H]1[C@H](C)CC[C@]2(C(=O)O)CC[C@]3(C)C(=CC[C@@H]4[C@@]5(C)CC[C@H](O)C(C)(C)[C@@H]5CC[C@]43C)[C@H]12` [ursolic acid], the “suppression of the onset of disease” value in data set [1] is “suppress Th17 differentiation and the onset of disease”. In addition, in the data set with Th17 cells, the “suppression of Th17 differentiation” value is recorded as “suppress Th17 differentiation”.
`CC(C)C(=O)NC1=NCC(Cc2ccccc2)N1CCC(C)c1ccccc1` (mixture of isomers) [2520.28]: the IC50 came to 6.37 ± 0.4 µM at RORγ [2] (setting [5]), 8.48 ± 0.4 µM at RORα (setting [6]) and 6.17 ± 0.3 µM on RORβ (setting [7]). On RORγ [4], the “% Inhibition at 4 μM (N=3)” value came out at 69.8%.
As to `CCOc1ccc(C[C@H]2CN=C(NC(=O)C(CC)c3ccccc3)N2CC2CCCCC2)cc1` (stereo partly shown) [2520.39], the IC50 was 4.36 ± 0.2 µM against RORγ [2] (IC50 (μM, N=4) ROR-Gamma, library 2520); 4.3 ± 0.2 µM against RORγ [2] (RORγ : IC50, Figure 6, confirmatory experiment, N = 4); 6.36 ± 0.3 µM against RORα (IC50 (μM, N=4) ROR-Alpha, library 2520); 6.3 ± 0.3 µM on RORα (RORα : IC50, Figure 6, confirmatory experiment, N = 4); 5.3 ± 0.4 µM on RORβ (Figure 6, confirmatory experiment, N = 4, read-out: RORβ : IC50); 5.34 ± 0.4 µM at RORβ (IC50 (μM, N=4) ROR-Beta, library 2520). In addition, at RORγ [4] (T-REx-CHO-K1, library 2520, RORγ cells, read-out: % Inhibition at 4 μM (N=3)), the inhibition at 4 µM amounted to 73.2%.
For the compound `CC(=O)Nc1nc(C)c(S(=O)(=O)Nc2ccc(C(O)(C(F)(F)F)C(F)(F)F)cc2)s1` [SR1001], the “suppression of the onset of disease” value in data set [1] was “suppress Th17 differentiation and the onset of disease”. Besides, the “suppression of Th17 differentiation” value in the data set on Th17 cells is listed as “suppress Th17 differentiation”.
With `CCC(C(=O)NC1=NCC(Cc2ccccc2)N1CC1CCCCC1)c1ccccc1` (mixture of isomers) [2520.27], the half-maximal inhibitory concentration (IC50) at RORγ [2] (setting [5]) stood at 4.8 ± 0.2 µM; on RORα (setting [6]), 6.61 ± 0.3 µM; at RORβ (setting [7]) it was 4.89 ± 0.3 µM. The “% Inhibition at 4 μM (N=3)” value on RORγ [4] is recorded as 97.7%.
The matching figures for `CCC(C(=O)NC1=NCC(Cc2ccc3ccccc3c2)N1CCC1CC2CCC1C2)c1ccccc1` (mixture of isomers) [2520.11]: 7.55 ± 0.5 µM, 10.3 ± 0.4 µM, 7.3 ± 0.8 µM and 67.6%.
For `CCC(C(=O)NC1=NCC(C(C)CC)N1CC1CCCCC1)c1ccccc1` (mixture of isomers) [2520.15] the same measures were 4.69 ± 0.2 µM, 5.97 ± 0.2 µM, 3.66 ± 0.3 µM and 43.6%.
